The term IC50 denotes the midpoint of a concentration-inhibition curve.

The results in this text go back to US8901314B2, “Substituted pyrazoles as N-type calcium channel blockers” (Janssen Pharmaceutica NV, priority 2012, dated 2014).

In assay [1] the test system is Cav2.2 (N-type calcium channel; α1B, α2δ and β3 subunits stably expressed in HEK293 cells). The experiment in a line: Automated electrophysiology assay (QPatch-HT patch clamp). The class given is cell-based. The settings on record: 0.1 μM; for QPatch % Inhibition, High Freq: high frequency stimulation (15th pulse of 5 Hz train); for QPatch % Inhibition, Low Freq: low frequency stimulation (1st pulse of train). As to the method:
The Cav2.2 (α1B) subunit (GenBank accession no. AAO53230; supplied by Lipscombe's laboratory at Brown University) was subcloned into pcDNA3.1, whereas the α2δ (M86621) and β3 (M88751) subunits were subcloned into pBudCE4.1 vectors. Stable cell lines expressing all three subunits were generated according to the following procedure: 1) HEK293 cells were transfected with α2δ−1/β3 expression constructs resulting in a stable cell line expressing α2δ−1 and β3 subunits that were selected under 200 μg/mL of Zeocin; 2) a stable cell line expressing α2δ−1/β3 subunits in high quantity as evidenced in its Western blots was isolated from the colony and purified; 3) this cell line was further transfected with Cav2.2 expression constructs, from which cells were subsequently selected under 400 μg/mL G418 and 200 μg/mL Zeocin; 4) these cells were clonally isolated, expanded and screened by Western blot analysis for expressing all three subunits
Cultures of cells stably expressing Cav2.2 were maintained at 37° C. in low glucose-containing Dulbecco's Modified Eagle medium (low glucose) under a 5% CO2 atmosphere. The medium was supplemented with 10% fetal bovine serum, 2 mM L-glutamine, 100 IU/mL penicillin, […] streptomycin, 400 μg/mL G418 and 200 μg/mL Zeocin.
High-throughput automated patch clamp system experiments were carried out using instruments (QPatch-HT) available from Sophion Biosciences, Inc. North Brunswick, N.J. Cells were grown in T175 flasks to 50%-90% confluence were enzymatically treated with Deatchin (Genlantis, San Diego, Calif., U.S.A.), centrifuged, rinsed and resuspended in 293 SFM II media (Life Technologies, Grand Island, N.Y., U.S.A.) supplemented with 25 mM HEPES (Sigma-Aldrich, St. Louis, Mo., U.S.A.) to a concentration of 2−3×10^6 cells/mL. Cells were added to automated cell preparation station on the QPatch-HT (Sophion Biosciences, North Brunswick, N.J., U.S.A.) and following a 10- to 30-min recovery period with gentle stirring, the assay protocol was initiated. During the automated cell preparation, cells were collected, centrifuged and resuspended in an extracellular (EC) solution containing 132 mM NaCl, 1.8 mM CaCl2, 5.4 mM KCl, 0.8 mM MgCl2, 10 mM glucose, and 10 mM HEPES (pH=7.4), adjusted with sucrose to 315 m0sm. The QPlate was primed with an intracellular solution containing 135 CsCl, 10 mM EGTA, 4 MgATP, 0.3 NaGTP, and 20 mM HEPES (pH=7.2), adjusted to approximately 290 m0sm with deionized water and the EC solution. Cells were added to the prepared QPlate wells by robotic pipettes of the QPatch-HT.
For cells determined to be in stable whole-cell patch clamp, the EC solution was replaced with a barium (Ba)/triethylammonium (TEA) solution containing 140 mM TEA-Cl, 10 mM BaCl2, 0.8 mM MgCl2, 10 mM glucose, and 10 mM HEPES (pH=7.4). High (40 mM) BaCl2 concentrations were made with adjustments of TEA-Cl (90 mM) to maintain the osmolarity. From a resting potential of −80 mV, a train of depolarizing pulses (15 pulses at 5 Hz, +20 mV) was delivered to the cell once every 30 sec for eight trains (4 min total), and the resulting currents were measured during a control period (no compound). This protocol was repeated for each subsequent addition of control buffer with or without compound (three periods total, each with four trains). The current generated in the 1st and 15th pulses of the last train of each period in the presence of each drug concentration was normalized to the current generated during the control period at the respective pulses (representing low- and high frequency stimulation, respectively). Data from both the second and third drug application period were analyzed for each cell. A final addition of Ba/TEA solution containing 60-100 uM CdCl2 was made to block all N-type current and “zero” the currents for each cell. A buffer/compound additions were made using a “spitting” feature of the QPatch-HT, which added three repretitions of 5 μL solution at the beginning of each recording period.

Assay [2] concerns the target α1B (Cav2.2), β3 and α2δ subunits of the N-type calcium channel (stable HEK cell line) (Rattus norvegicus, UniProt Q02294). The assay can be described thus: Calcium-dye indicator assay (FDSS, KCl depolarization). Type of assay: cell-based. Particulars: calcium mobilization response to 50 mM KCl; six-point concentration-response. As to the method: A stable cell line (HEK parent) co-expressing the α1B (Cav2.2), β3 and α2δ subunits of the N-type calcium channel subunits was used. These cells were routinely grown as monolayers in low glucose-containing Dulbecco's Modified Eagle Medium supplemented with 10% FBS, 2 mM L-glutamine, 100 I.U./mL penicillin, 100 μg/mL streptomycin, 400 μg/mL G418 and 200 μg/mL Zeocin (split ratio=1:5). Cells were maintained in 5% CO2 at 37° C. Compounds of Formula (I) were prepared as 10 mM stocks in DMSO from neat compound, if available. Otherwise, the 5 or 10 mM DMSO stock solutions provided in-house were used.
Calcium mobilization responses to KCl depolarization were evaluated by measuring the intensity of calcium-mediated fluorescent signal in the presence of BD Calcium Assay Dye (BD Biosciences, Franklin Lakes, N.J., U.S.A.), utilizing a Functional Drug Screening System (FDSS) by Hamamatsu Corporation (Bridgewater, N.J., U.S.A.).
Twenty-four hours prior to assay, cells were seeded in clear-base poly-D-lysine coated 384-well plates (BD Biosciences) at a density of 5,000 cells per well in culture medium and grown overnight in 5% CO2 at 37° C. On the day of assay growth media were removed and cells were loaded with BD calcium assay dye (BD Biosciences) for 35 min at 37° C. under 5% CO2 and then for 25 min at room temperature. Utilizing the FDSS, cells were exposed to representative compounds of Formula (I) at varying concentrations and intracellular calcium was measured for 5 min prior to the addition of 50 mM KCl for an additional 3 min of measurement.
Maximal fluorescence intensity (FI) achieved upon addition of 50 mM KCl was exported from the FDSS software and further analyzed using GraphPad Prism 4 (Graph Pad Software Inc., CA, U.S.A.). Data were normalized to the maximum average counts from quadruplicate wells for each condition in the presence of 50 mM KCl and to the minimum average counts in the presence of buffer. Theoretical curves were generated using nonlinear regression curve-fitting analysis of either sigmoidal concentration-response or sigmoidal concentration-response (variable slope), and the IC50 values with the best-fit dose curve determined by GraphPad Prism were reported.
For orientation: A change in cytosolic calcium serves as a functional read-out for many receptors and channels.

Regarding `COc1ccccc1-n1nc(C2C[C@@H](C)O[C@H](C)C2)cc1-c1ccc(Cl)cc1` (relative stereo) [Compound 61, 5-(4-Chlorophenyl)-3-[(trans)-2,6-dimethyltetrahydro-2H-pyran-4-yl]-1-(2-methoxyphenyl)-1H-pyrazole], in assay [1], the “QPatch % Inhibition, High Freq” value was 62% and the “QPatch % Inhibition, Low Freq” value is listed as 30%. In addition, the IC50 in assay [2] came to 1.5 nM.
The corresponding values for `COc1ccccc1-n1nc([C@H]2CCO[C@@H](C(C)C)C2)cc1-c1ccc(Cl)cc1` (relative stereo) [Compound 64, 5-(4-Chlorophenyl)-1-(2-methoxyphenyl)-3-[(cis)-2-(1-methylethyl)tetrahydro-2H-pyran-4-yl]-1H-pyrazole] are 55%, 18% and 7.2 nM.
Take `COc1ccccc1-n1nc(C2CC(C)(C)OC(C)(C)C2)cc1-c1ncc(C)s1` [Compound 38, 2-[1-(2-Methoxyphenyl)-3-(2,2,6,6-tetramethyltetrahydro-2H-pyran-4-yl)-1H-pyrazol-5-yl]-5-methyl-1,3-thiazole]: the 50% inhibitory concentration (IC50) in assay [2] came out at 110 nM.
On to `COc1ncc(-c2cc(C3CC(C)(C)OC(C)(C)C3)nn2-c2ccccc2OC)cn1` [Compound 39, 2-Methoxy-5-[1-(2-methoxyphenyl)-3-(2,2,6,6-tetramethyltetrahydro-2H-pyran-4-yl)-1H-pyrazol-5-yl]pyrimidine], for which, in assay [2], the half-maximal inhibitory concentration (IC50) turned out to be 72 nM.
On to `CCN(CC)C(=O)c1ccc(-c2cc(C3CC(C)(C)OC(C)(C)C3)nn2-c2ccccc2OC)cc1` [Compound 40, N,N-Diethyl-4-[1-(2-methoxyphenyl)-3-(2,2,6,6-tetramethyltetrahydro-2H-pyran-4-yl)-1H-pyrazol-5-yl]-benzamide], for which the IC50 in assay [2] amounted to 270 nM.
On the same count and under the same terms, next, `COc1ccccc1-n1nc(C2CC(C)(C)OC(C)(C)C2)cc1-c1cc2ccccc2o1` [Compound 41, 5-(1-Benzofuran-2-yl)-1-(2-methoxyphenyl)-3-(2,2,6,6-tetramethyltetrahydro-2H-pyran-4-yl)-1H-pyrazole]: 65 nM.
The same measure, in the same setting: the figure for `COc1ccccc1-n1nc(C2CC(C)(C)OC(C)(C)C2)cc1-c1ccc2[nH]ccc2c1` [Compound 42, 5-[1-(2-Methoxyphenyl)-3-(2,2,6,6-tetramethyltetrahydro-2H-pyran-4-yl)-1H-pyrazol-5-yl]-1H-indole] is 55 nM; for `COc1cc(OC)cc(-c2cc(C3CC(C)(C)OC(C)(C)C3)nn2-c2ccccc2OC)c1` [Compound 43, 5-(3,5-Dimethoxyphenyl)-1-(2-methoxyphenyl)-3-(2,2,6,6-tetramethyltetrahydro-2H-pyran-4-yl)-1H-pyrazole] it is 58 nM; for `COc1ccccc1-n1nc(C2CC(C)(C)OC(C)(C)C2)cc1-c1cccnc1` [Compound 45, 3-[1-(2-Methoxyphenyl)-3-(2,2,6,6-tetramethyltetrahydro-2H-pyran-4-yl)-1H-pyrazol-5-yl]-pyridine] it is 71 nM.
Same read-out and setting: the figure for `CC(C)(C)Oc1ccccc1-n1nc(C2CC(C)(C)OC(C)(C)C2)cc1-c1ccc(Cl)cc1` [Compound 48, 1-(2-tert-Butoxyphenyl)-5-(4-chlorophenyl)-3-(2,2,6,6-tetramethyltetrahydro-2H-pyran-4-yl)-1H-pyrazole] is 110 nM; for `COc1ccccc1-n1nc(C2CCOCC2)cc1-c1ccc(Cl)cc1` [Compound 71, 5-(4-Chlorophenyl)-1-(2-methoxyphenyl)-3-(tetrahydro-2H-pyran-4-yl)-1H-pyrazole] it is 31 nM.
On to `Clc1ccc(-c2cc(C3CCOCC3)nn2-c2ccccc2Cl)cc1` [Compound 74, 1-(2-Chlorophenyl)-5-(4-chlorophenyl)-3-(tetrahydro-2H-pyran-4-yl)-1H-pyrazole], for which, in assay [2], the IC50 was 53 nM.
On the same count and under the same terms, the figure for `CC1(C)CC(c2cc(-c3ccc(Cl)cc3)n(-c3ccccc3N3CCCC3)n2)CC(C)(C)O1` [Compound 76, 5-(4-Chlorophenyl)-1-(2-pyrrolidin-1-ylphenyl)-3-(2,2,6,6-tetramethyltetrahydro-2H-pyran-4-yl)-1H-pyrazole] is 100 nM.
On the same count and under the same terms, the figure for `CCc1ccccc1-n1nc(C2CCOCC2)cc1-c1ccc(Cl)cc1` [Compound 77, 5-(4-Chlorophenyl)-1-(2-ethylphenyl)-3-(tetrahydro-2H-pyran-4-yl)-1H-pyrazole] is 150 nM; for `FC(F)(F)Oc1ccccc1-n1nc(C2CCOCC2)cc1-c1ccc(Cl)cc1` [Compound 79, 5-(4-Chlorophenyl)-3-(tetrahydro-2H-pyran-4-yl)-1-[2-(trifluoromethoxy)phenyl]-1H-pyrazole] it is 180 nM.
Still for that read-out and setting: next, `Clc1ccc(-c2cc(C3CCOCC3)nn2-c2c(Cl)cccc2Cl)cc1` [Compound 80, 5-(4-Chlorophenyl)-1-(2,6-dichlorophenyl)-3-(tetrahydro-2H-pyran-4-yl)-1H-pyrazole]: 200 nM; `COc1ccccc1-n1nc(C2CC(C)(C)OC(C)(C)C2)cc1-c1ccc(OCCn2ccnc2)cc1` [Compound 81, 5-{4-[2-(1H-Imidazol-1-yl)ethoxy]phenyl}-1-(2-methoxyphenyl)-3-(2,2,6,6-tetramethyltetrahydro-2H-pyran-4-yl)-1H-pyrazole]: 400 nM.
With `COc1ccccc1-n1nc(C2CC(C)(C)OC(C)(C)C2)cc1-c1ccc(OCCN(C)C)cc1` [Compound 82, 2-{4-[1-(2-Methoxyphenyl)-3-(2,2,6,6-tetramethyltetrahydro-2H-pyran-4-yl)-1H-pyrazol-5-yl]phenoxy}-N,N-dimethylethanamine], the 50% inhibitory concentration (IC50) in assay [2] came out at 770 nM.
Still for that read-out and setting: next, `COc1ccccc1-n1nc(C2=CC(C)(C)OC2(C)C)cc1-c1ccc(Cl)cc1` [Compound 97, 5-(4-Chlorophenyl)-1-(2-methoxyphenyl)-3-(2,2,5,5-tetramethyl-2,5-dihydrofuran-3-yl)-1H-pyrazole]: 13 nM.
